US20250171461A1, “STIMULATOR OF INTERFERON GENES (STING) MODULATORS, AND COMPOSITIONS AND METHODS THEREOF” (Geode Therapeutics Inc., priority 2022, published 2025)

Each compound was assayed against T1, human HAQ STING isoform (hSTING HAQ) (Homo sapiens, UniProt Q86WV6, G230A/H232R/R293Q/R71H) (assay: IFN-β mRNA level in THP1 cells (qPCR, STING agonist cellular activity)). Details: compound at 3.6 μM, 2 hrs, IFNβ expression normalized against GAPDH by the 2^-ΔΔCT method, DMSO = 1.0.
T1 construct: THP1 cells express the naturally occurring human HAQ STING isoform (hSTING HAQ); host or cells: THP1
T1 sequence (Q86WV6 whole entry R71H/G230A/H232R/R293Q, canonical isoform): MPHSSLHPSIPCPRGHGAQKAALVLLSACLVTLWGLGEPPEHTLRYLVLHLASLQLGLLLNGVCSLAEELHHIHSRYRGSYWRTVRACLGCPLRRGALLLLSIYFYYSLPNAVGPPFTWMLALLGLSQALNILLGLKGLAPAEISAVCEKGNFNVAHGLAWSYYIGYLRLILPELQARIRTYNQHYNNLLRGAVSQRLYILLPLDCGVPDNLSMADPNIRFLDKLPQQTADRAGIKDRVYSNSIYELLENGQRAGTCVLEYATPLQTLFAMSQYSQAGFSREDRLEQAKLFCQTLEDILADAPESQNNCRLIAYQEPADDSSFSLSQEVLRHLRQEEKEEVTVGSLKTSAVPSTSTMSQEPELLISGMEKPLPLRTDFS
Type: cell-based
Procedure: Cellular activity of STING agonists was determined by mRNA levels of IFN-β in THP1 (Otwo Biotech HTX1621) cell line. THP1 cells express the naturally occurring human HAQ STING isoform (hSTING HAQ), which responses to the activation of STING agonists.
THP1 cells were seeded into Falcon 12-well cell Culture Plate (Corning #353043) at 9×10^5 cells per well, in 1 ml complete culture medium (RPMI-1640, GIBCO #C1187500BT) containing 10% heat inactivated FBS (GIBCO #10099141C), 1% Pen-Strep (HyClone SV30010) and incubated at 37° ΔC, 5% CO2 overnight. On day 2, compound (final concentration at 3.6 μM) or DMSO (0.1%, Sigma Aldrich #8418) was added to THP1 cells and further incubated for 2 hrs min at 37° ΔC, 5% CO2. Cells were then collected for RNA extraction.
Total RNA was extracted with TRIzol reagent (Invitrogen #15596026) and […] was used to synthesize first-strand cDNA with Maxima First Strand cDNA Synthesis Kit (TAKARA #RR036A). Quantitative PCR was performed with Maxima SYBR Green qPCR Master Mix (ABI #4367659, USA). The primer sequences used were as follows: GAPDH (5′-[…]-3′, 5′-[…]-3′). INFP3 (5′-[…]-3′,5′-[…]-3′) Real-time PCR was performed on QuantStudio™ 5 Real-Time PCR System (Thermo Fisher). Relative expression levels of IFNβ gene were normalized against the level of GAPDH expression by the 2^−ΔΔCT method. Each PCR reaction was performed in triplicates.

SMILES	Relative mRNA INFβ/GAPDH THP 1
COc1cc(CN(Cc2cn3c4c(c(N5CCOCC5)c(F)cc4c2=O)OCC3C)[C@H]2CCCN(c3ccc(N)nc3)C2)ccn1 (stereo partly drawn) [Compound 27, 6-((((S)-1-(6-aminopyridin-3-yl)piperidin-3-yl)((2-methoxypyridin-4-yl)methyl)amino)methyl)-9-fluoro-3-methyl-10-morpholino-2H-[1,4]oxazino[2,3,4-ij]quinolin-7(3H)-one]	372.4
COc1cc(CN(Cc2cn3c4c(c(F)c(F)cc4c2=O)SCC3)[C@H]2CCCN(c3ccc(NCC4CC4)nc3)C2)ccn1 [Compound 98, (S)-6-(((1-(6-((cyclopropylmethyl)amino)pyridin-3-yl)piperidin-3-yl)((2-methoxypyridin-4-yl)methyl)amino)methyl)-9,10-difluoro-2,3-dihydro-7H-[1,4]thiazino[2,3,4-ij]quinolin-7-one]	301.6
CCOc1cc(CN(Cc2cn3c4c(c(F)c(F)cc4c2=O)OCC3)[C@H]2CCCN(c3cnccn3)C2)ccn1 [Compound 90, (S)-6-((((2-ethoxypyridin-4-yl)methyl)(1-(pyrazin-2-yl)piperidin-3-yl)amino)methyl)-9,10-difluoro-2,3-dihydro-7H-[1,4]oxazino[2,3,4-ij]quinolin-7-one]	1.7
COc1cc(CN(Cc2cn3c4c(c(F)c(F)cc4c2=O)OC2(CCC2)C3)[C@H]2CCCN(c3ccc(N)nc3)C2)ccn1 [Compound 49, (S)-6-(((1-(6-aminopyridin-3-yl)piperidin-3-yl)((2-methoxypyridin-4-yl)methyl)amino)methyl)-9,10-difluorospiro[[1,4]oxazino[2,3,4-ij]quinoline-2,1′-cyclobutan]-7(3H)-one]	5276.2
COc1cc(CN(Cc2cn3c4c(c(F)c(F)cc4c2=O)OCC3C)[C@H]2CCCN(c3ccc(N(C)C)nc3)C2)ccn1 (stereo partly drawn) [Compound 19, 11-[[[(3S)-1-[6-(dimethylamino)-3-pyridyl]-3-piperidyl]-[(2-methoxy-4-pyridyl)methyl]amino]methyl]-6,7-difluoro-2-methyl-4-oxa-1-azatricyclo[7.3.1.05,13]trideca-5(13),6,8,11-tetraen-10-one]	2625.9
COC(=O)c1cc(CN(Cc2cn3c4c(c(F)c(F)cc4c2=O)OCC3)[C@H]2CCCN(c3cnccn3)C2)ccn1 [Compound 88, methyl (S)-4-((((9,10-difluoro-7-oxo-2,3-dihydro-7H-[1,4]oxazino[2,3,4-ij]quinolin-6-yl)methyl)(1-(pyrazin-2-yl)piperidin-3-yl)amino)methyl)picolinate]	0.8
Cc1cc(CN(Cc2cn3c4c(c(F)c(F)cc4c2=O)OCC3C)[C@H]2CCCN(c3ccc(N)nc3)C2)ccn1 (stereo partly drawn) [Compound 3, 6-((((S)-1-(6-aminopyridin-3-yl)piperidin-3-yl)((2-methylpyridin-4-yl)methyl)amino)methyl)-9,10-difluoro-3-methyl-2H-[1,4]oxazino[2,3,4-ij]quinolin-7(3H)-one]	1356.3
COc1cc(CN(Cc2cn3c4c(c(F)c(F)cc4c2=O)OCC3C)[C@H]2CCCN(c3cccnc3)C2)ccn1 (stereo partly drawn) [Compound 22, 9,10-difluoro-6-((((2-methoxypyridin-4-yl)methyl)((S)-1-(pyridin-3-yl)piperidin-3-yl)amino)methyl)-3-methyl-2H-[1,4]oxazino[2,3,4-ij]quinolin-7(3H)-one]	6463.9
Cc1ccc(N2CCC[C@H](N(Cc3ccnc(C)c3)Cc3cn4c5c(c(F)c(F)cc5c3=O)OCC4C)C2)cn1 (stereo partly drawn) [Compound 9, 9,10-difluoro-3-methyl-6-((((S)-1-(6-methylpyridin-3-yl)piperidin-3-yl)((2-methylpyridin-4-yl)methyl)amino)methyl)-2H-[1,4]oxazino[2,3,4-ij]quinolin-7(3H)-one]	332.6
COc1cc(CN(Cc2cn3c4c(c(N5CCCCC5C)c(F)cc4c2=O)OCC3C)[C@H]2CCCN(c3ccc(N)nc3)C2)ccn1 (stereo partly drawn) [Compound 37, 6-((((S)-1-(6-aminopyridin-3-yl)piperidin-3-yl)((2-methoxypyridin-4-yl)methyl)amino)methyl)-9-fluoro-3-methyl-10-(2-methylpiperidin-1-yl)-2H-[1,4]oxazino[2,3,4-ij]quinolin-7(3H)-one]	6829.2
Cc1cc(CN(Cc2cn3c4c(c(F)c(F)cc4c2=O)OCC3)[C@H]2CCCN(c3ccc(N)nc3)C2)cc(C)c1F [Compound 78, (S)-6-(((1-(6-aminopyridin-3-yl)piperidin-3-yl)(4-fluoro-3,5-dimethylbenzyl)amino)methyl)-9,10-difluoro-2,3-dihydro-7H-[1,4]oxazino[2,3,4-ij]quinolin-7-one]	1.2
COc1cc(CN(Cc2cn3c4c(c(O)c(F)cc4c2=O)OCC3C)[C@H]2CCCN(c3ccc(N)nc3)C2)ccn1 (stereo partly drawn) [Compound 63, 6-((((S)-1-(6-aminopyridin-3-yl)piperidin-3-yl)((2-methoxypyridin-4-yl)methyl)amino)methyl)-9-fluoro-10-hydroxy-3-methyl-2H-[1,4]oxazino[2,3,4-ij]quinolin-7(3H)-one]	2.5
COc1cc(CN(Cc2cn3c4c(c(-c5ccc(CCO)cn5)c(F)cc4c2=O)OCC3C)[C@H]2CCCN(c3ccc(N)nc3)C2)ccn1 (stereo partly drawn) [Compound 64, 6-((((S)-1-(6-aminopyridin-3-yl)piperidin-3-yl)((2-methoxypyridin-4-yl)methyl)amino)methyl)-9-fluoro-10-(5-(2-hydroxyethyl)pyridin-2-yl)-3-methyl-2H-[1,4]oxazino[2,3,4-ij]quinolin-7(3H)-one]	26.6
COc1cc(CN(Cc2cn3c4c(c(F)c(F)cc4c2=O)OCC3)[C@H]2CCCN(c3ccc(C)nc3)C2)ccn1 [Compound 80, (S)-9,10-difluoro-6-((((2-methoxypyridin-4-yl)methyl)(1-(6-methylpyridin-3-yl)piperidin-3-yl)amino)methyl)-2,3-dihydro-7H-[1,4]oxazino[2,3,4-ij]quinolin-7-one]	6820.3
Nc1ccc(N2CCC[C@H](N(Cc3ccc(Cl)nc3)Cc3cn4c5c(c(F)c(F)cc5c3=O)OCC4)C2)cn1 [Compound 76, (S)-6-(((1-(6-aminopyridin-3-yl)piperidin-3-yl)((6-chloropyridin-3-yl)methyl)amino)methyl)-9,10-difluoro-2,3-dihydro-7H-[1,4]oxazino[2,3,4-ij]quinolin-7-one]	0.8
COc1cc(CN(Cc2cn3c4c(c(C)c(F)cc4c2=O)OCC3C)[C@H]2CCCN(c3ccc(N)nc3)C2)ccn1 (stereo partly drawn) [Compound 57, 6-((((S)-1-(6-aminopyridin-3-yl)piperidin-3-yl)((2-methoxypyridin-4-yl)methyl)amino)methyl)-9-fluoro-3,10-dimethyl-2H-[1,4]oxazino[2,3,4-ij]quinolin-7(3H)-one]	580.9
COc1cc(CN(Cc2cn3c4c(c(OCc5ccccc5)c(F)cc4c2=O)OCC3C)[C@H]2CCCN(c3ccc(N)nc3)C2)ccn1 (stereo partly drawn) [Compound 62, 6-((((S)-1-(6-aminopyridin-3-yl)piperidin-3-yl)((2-methoxypyridin-4-yl)methyl)amino)methyl)-10-(benzyloxy)-9-fluoro-3-methyl-2H-[1,4]oxazino[2,3,4-ij]quinolin-7(3H)-one]	915.2
Nc1ccc(N2CCC[C@H](N(Cc3ccc(C(F)(F)F)cc3F)Cc3cn4c5c(c(F)c(F)cc5c3=O)OCC4)C2)cn1 [Compound 74, (S)-6-(((1-(6-aminopyridin-3-yl)piperidin-3-yl)(2-fluoro-4-(trifluoromethyl)benzyl)amino)methyl)-9,10-difluoro-2,3-dihydro-7H-[1,4]oxazino[2,3,4-ij]quinolin-7-one]	1.4
COc1cc(CN(Cc2cn3c4c(c(N5CC(O)C5)c(F)cc4c2=O)OCC3C)[C@H]2CCCN(c3ccc(N)nc3)C2)ccn1 (stereo partly drawn) [Compound 38, 6-((((S)-1-(6-aminopyridin-3-yl)piperidin-3-yl)((2-methoxypyridin-4-yl)methyl)amino)methyl)-9-fluoro-10-(3-hydroxyazetidin-1-yl)-3-methyl-2H-[1,4]oxazino[2,3,4-ij]quinolin-7(3H)-one]	672.0
COc1cnccc1CN(Cc1cn2c3c(c(F)c(F)cc3c1=O)OCC2)[C@H]1CCCN(c2cnccn2)C1 [Compound 86, (S)-9,10-difluoro-6-((((3-methoxypyridin-4-yl)methyl)(1-(pyrazin-2-yl)piperidin-3-yl)amino)methyl)-2,3-dihydro-7H-[1,4]oxazino[2,3,4-ij]quinolin-7-one]	1.1
COc1cc(CN(Cc2cn3c4c(c(F)c(F)cc4c2=O)OC(C)C3)[C@H]2CCCN(c3ccc(N)nc3)C2)ccn1 (stereo partly drawn) [Compound 51, 6-((((S)-1-(6-aminopyridin-3-yl)piperidin-3-yl)((2-methoxypyridin-4-yl)methyl)amino)methyl)-9,10-difluoro-2-methyl-2H-[1,4]oxazino[2,3,4-ij]quinolin-7(3H)-one]	7257.8
